Ends that are not written are not given here.
Legend:
[1] = test system: MC1R variants D84E, V92M, R142H, R151C, R160W, D294H; format: cell-based, human
[2] = test system: pERK (HEK293 cells expressing MC1R); format: cell-based, human; settings: PKA inhibitor H89; 300 nM HBD3 (Figure 2C and D); NDP-MSH (Figure S2D)
MC1R variant receptors = settings: ref Beaumont et al., 2005, 2007; cited from earlier work
[3] = test system: MC1R variants in HBL human melanoma cells; settings: ref Herraiz et al., 2009, 2011; cited from earlier work
NR4A receptor family = settings: ref Smith et al., 2008; cited from earlier work
MAPK signalling = settings: ref Busca et al., 2000; cited from earlier work
MC1R [4] = test: Inhibition of α-MSH-induced cAMP; format: cell-based; settings: Figure S1H
HEK293 control cells = test: pERK response in control HEK293 cells; format: cell-based, human; settings: Figure S2B and E; ligand not given
human MC1R [5] = biological target: T1, human MC1R (Homo sapiens, UniProt Q01726); test: cAMP accumulation in HEK293 cells stably expressing human MC1R wild type; format: cell-based; settings: for agonist character for MC1R-mediated cAMP signalling: HEK cells expressing human MC1R, relative to NDP-MSH
T1 sequence (Q01726 whole entry): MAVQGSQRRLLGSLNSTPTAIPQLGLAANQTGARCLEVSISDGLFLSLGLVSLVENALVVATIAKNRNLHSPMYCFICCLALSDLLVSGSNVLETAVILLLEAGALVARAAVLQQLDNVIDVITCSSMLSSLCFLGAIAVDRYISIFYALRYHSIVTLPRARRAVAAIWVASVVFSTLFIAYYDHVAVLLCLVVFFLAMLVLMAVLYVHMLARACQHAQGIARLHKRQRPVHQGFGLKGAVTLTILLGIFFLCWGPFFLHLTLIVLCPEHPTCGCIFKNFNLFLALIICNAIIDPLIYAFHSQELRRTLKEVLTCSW

human MC1R [6] = biological target: T1, human MC1R; format: cell-based
MC1R [7] = settings: ref Candille et al., 2007; cited from earlier work
mouse Mc1r = settings: ref Candille et al., 2007, cited from earlier work
dog Mc1r = settings: ref Candille et al., 2007; cited from earlier work
[8] = test system: mouse melan-a melanocytes; settings: concentrations up to 1uM, ref Candille et al., 2007; cited from earlier work

Question: With “NDP- melanocyte stimulating hormone [NDP-MSH]” as the substance, how does the “induction of pERK over basal levels by variant receptors” value ([1]; 10 nM NDP-MSH, 5 min, 2–3 independent experiments, Figure 3A, S3A) read?
Answer: all variant receptors show an induction of pERK over the basal levels

Question: And the “average pERK increase over basal levels, combined variant receptor cells” value ([1]; 10 nM NDP-MSH, 5 min, mean, n ≥ 3, normalized to GAPDH)?
Answer: 2.7 fold

Question: And the “pERK of combined variant receptor clones compared to control cells” value ([1]; 10 nM NDP-MSH, 5 min, n ≥ 3, t-test)?
Answer: significant increase compared to the levels of pERK in control cells

Question: What about the “PKA dependence of MAPK activation” value [2] of the same substance?
Answer: This was also the case for NDP-MSH activation of MAPK

Question: And the “cAMP response of MC1R variant receptors” value (MC1R variant receptors)?
Answer: impaired cAMP responses

Question: What about the “MAPK activation by variant receptors versus wild-type MC1R” value [3] of the same substance?
Answer: able to activate MAPK as efficiently as wild-type MC1R

Question: And the “induction of the NR4A receptor family” value (NR4A receptor family)?
Answer: PKC and p38 are involved in the NDP-MSH induction of the NR4A receptor family

Question: Which “induction of MAPK signalling” value (MAPK signalling) does the source give for “alpha-melanocyte stimulating hormone (SYSMEHFRWGKPV; ends and bridges not checked; UniProt P01189 138-150, looked up) [α-MSH]” here?
Answer: induce MAPK signalling

Question: With “human β-defensin 3 (GIINTLQKYYCRVRGGRCAVLSCLPKEEQIGKCSTRGRKCCRRKK; ends and bridges not checked; cysteine pairing not given here; UniProt P81534 23-67, looked up) [HBD3]” as the substance, how does the “activation of ERK by variants” value ([1]; 300 nM HBD3, 5 min, exception of R151C and D84E, 2–3 independent experiments, Figure 3A, S3B) read?
Answer: With the exception of R151C and D84E, HBD3 stimulation produced a similar activation of ERK by variants

Question: What about the “competitive antagonism of α-MSH induction of cAMP” value (MC1R [4]) of the same substance?
Answer: able to act as a competitive antagonist for α-MSH induction of cAMP

Question: What about the “pERK induction in control cells” value (HEK293 control cells) of the same substance?
Answer: no induction observed in control cells

Question: What about the “cAMP induction compared to 100 nM ASIP-YY” value (human MC1R [5]; 300 nM HBD3, Figure S1E and F) of the same substance?
Answer: significant increase compared to 100 nM ASIP-YY

Question: What about the “agonist character for MC1R-mediated cAMP signalling” value (human MC1R [5]) of the same substance?
Answer: partial agonist, with both agonistic and antagonistic effects on cAMP signalling

Question: And the “agonist character for MC1R-mediated cAMP signalling” value (human MC1R [5]; listed as β-defensin 3)?
Answer: weak partial agonist for cAMP signalling

Question: What about the “competitive inhibition of NDP-MSH relative to ASIP-YY (cAMP)” value (human MC1R [6]) of the same substance?
Answer: weaker competitive inhibitor to NDP-MSH

Question: What about the “inhibition of 1 nM NDP-MSH-induced cAMP” value (human MC1R [6]; 100 or 300 nM HBD3, two MC1R-expressing HEK clones (WTe, WT#21), 5–10 min, n = 3) of the same substance?
Answer: able to inhibit the level of 1 nM NDP-MSH-induced cAMP

Question: And the “effect of increased concentration on level of inhibition” value (human MC1R [6]; 100 vs 300 nM HBD3, 1 nM NDP-MSH)?
Answer: did not significantly increase the level of inhibition

Question: What about the “binding to MC1R” value (MC1R [7]) of the same substance?
Answer: found to bind with high affinity to the melanocortin-1 receptor

Question: And the “displacement of NDP-MSH in ligand-binding assays” value (MC1R [7])?
Answer: displace NDP-MSH in ligand-binding assays

Question: For β-defensin 103 [CBD103], which Ki (mouse Mc1r; mouse Mc1r) is on record?
Answer: 15.1 nM

Question: What about the “binding to mouse Mc1r” value (mouse Mc1r) of the same substance?
Answer: able to bind to dog and mouse Mc1r

Question: What about the “binding to dog Mc1r” value (dog Mc1r) of the same substance?
Answer: able to bind to dog and mouse Mc1r

Question: And the “cAMP induction in mouse melanocytes” value [8]?
Answer: did not induce cAMP

Reference: paper PMC3994986 (Pigment cell & melanoma research, 2012)
